Holding throughout (format): in vivo
In test [1] the test system is goosegrass (Eleusine indica). Briefly: Test A1 postemergence, goosegrass. The conditions noted are these: for Goosegrass plant response rating: postemergence; for Plant response rating, Goosegrass: Postemergence. The procedure, abridged: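 Herbicidal response was scored on plants treated either preemergence, by directed spray onto soil of a loam–sand blend after sowing, or postemergence on potted plants at the one- to two-leaf stage, 2–10 cm high. Test chemicals were carried in a non-phytotoxic solvent mix with surfactant.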

The subject of test [2] is blackgrass (Alopecurus myosuroides). Briefly: Test A1 preemergence, blackgrass. The procedure, abridged:
(§1)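 Plants grown in pots of loam/sand mix; preemergence = soil-directed spray on seeded pots, postemergence = spray at 1–2 leaves, height 2–10 cm; test chemicals formulated in non-phytotoxic solvent with surfactant.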

Test [3] relates to Pigweed, Palmer (palmer amaranth, palmer pigweed, Amaranthus palmeri). Briefly: Test A1 postemergence, Pigweed, Palmer. Particulars: for Pigweed, Palmer plant response rating: postemergence; for Plant response rating, Pigweed, Palmer: Postemergence. The procedure, abridged:
as §1

The mark [4] stands for this setting: 31 g ai/ha, 0 to 100 scale (0 no effect, 100 complete control).
[5] abbreviates: 125 g ai/ha, 0 to 100 scale, 0 no effect, 100 complete control.
[6] abbreviates: 31 g ai/ha, 0 to 100 scale (0 no effect, 100 complete control), 10 days.

Each structure is given as a SMILES string.

On to `Cc1c(C(=O)N2C[C@@H](C)O[C@H](C)C2)cc(N(COC(=O)C(C)(C)C)S(=O)(=O)C(F)(F)F)c(C)c1C` (relative stereo) [Compound 373], for which, in test [1] (setting [4]), the “Goosegrass plant response rating” value was found to be 0. Moreover, in test [1] (125 g ai/ha, 0 to 100 scale), the “Plant response rating, Goosegrass” value turned out to be 70. The “Plant response rating, Blackgrass” value in test [2] (setting [4]) and in test [2] (setting [5]) was 30 each time. Also, in test [3] (setting [4]), the “Pigweed, Palmer plant response rating” value worked out at 0. Moreover, the “Plant response rating, Pigweed, Palmer” value in test [3] (125 g ai/ha, 0 to 100 scale) is 10.
Turning to `CCOC(=O)N(c1cc(C(=O)N2C[C@@H](C)O[C@H](C)C2)c(C)c(C)c1C)S(=O)(=O)C(F)(F)F` (relative stereo) [Compound 374], the “Goosegrass plant response rating” value in test [1] (setting [4]) stood at 0. Further, the “Plant response rating, Goosegrass” value in test [1] (125 g ai/ha, 0 to 100 scale) is on record as 90. Besides, the “Plant response rating, Blackgrass” value in test [2] (setting [4]) and in test [2] (setting [5]) was 0 throughout. Besides, in test [3] (setting [4]), the “Pigweed, Palmer plant response rating” value stood at 10. Besides, the “Plant response rating, Pigweed, Palmer” value in test [3] (125 g ai/ha, 0 to 100 scale) came out at 30.
For the compound `Cc1c(NS(=O)(=O)C(F)(F)F)cc(C(=O)N2CCSCC2)c(C)c1C` [Compound 283], the “Plant response rating, Goosegrass” value in test [1] (setting [6]) worked out at 10; in test [1] (125 g ai/ha, 0 to 100 scale), 30. The “Plant response rating, Pigweed, Palmer” value in test [3] (setting [6]) was found to be 10; in test [3] (125 g ai/ha, 0 to 100 scale) it was 50.
With `Cc1c(C(=O)N2CCSCC2)cc(N(COC(=O)C(C)(C)C)S(=O)(=O)C(F)(F)F)c(C)c1C` [Compound 285], the “Plant response rating, Goosegrass” value in test [1] (setting [6]) came to 0; in test [1] (125 g ai/ha, 0 to 100 scale), 50. For the same compound, the “Plant response rating, Pigweed, Palmer” value in test [3] (setting [6]) is listed as 0; in test [3] (125 g ai/ha, 0 to 100 scale), 20.
With `CCOC(=O)N(c1cc(C(=O)N2CCSCC2)c(C)c(C)c1C)S(=O)(=O)C(F)(F)F` [Compound 286], the “Plant response rating, Goosegrass” value in test [1] (setting [6]) came out at 0; in test [1] (125 g ai/ha, 0 to 100 scale), 40. Further, the “Plant response rating, Pigweed, Palmer” value in test [3] (setting [6]) was 0; in test [3] (125 g ai/ha, 0 to 100 scale) it was 30.
For the compound `Cc1c(NS(=O)(=O)C(F)(F)F)cc(C(=O)N2CCC(C)CC2)c(C)c1C` [Compound 366], the “Goosegrass plant response rating” value in test [1] (setting [4]) is recorded as 0. In test [1] (125 g ai/ha, 0 to 100 scale), the “Plant response rating, Goosegrass” value came out at 80. The “Plant response rating, Blackgrass” value is recorded as 0 in test [2] (setting [4]) and 50 in test [2] (setting [5]). In addition, the “Pigweed, Palmer plant response rating” value in test [3] (setting [4]) was 10. For the same compound, in test [3] (125 g ai/ha, 0 to 100 scale), the “Plant response rating, Pigweed, Palmer” value was found to be 20.
Turning to `COC1CCN(C(=O)c2cc(NS(=O)(=O)C(F)(F)F)c(C)c(C)c2C)CC1` [Compound 367], the “Goosegrass plant response rating” value in test [1] (setting [4]) was found to be 10. The “Plant response rating, Goosegrass” value in test [1] (125 g ai/ha, 0 to 100 scale) was determined as 70. Also, the “Plant response rating, Blackgrass” value in test [2] (setting [4]) and in test [2] (setting [5]) was 0 in each case. The “Pigweed, Palmer plant response rating” value in test [3] (setting [4]) was 40. Besides, the “Plant response rating, Pigweed, Palmer” value in test [3] (125 g ai/ha, 0 to 100 scale) was 40.
Take `Cc1c(C(=O)N2CCC(C)CC2)cc(N(COC(=O)C(C)(C)C)S(=O)(=O)C(F)(F)F)c(C)c1C` [Compound 369]: the “Goosegrass plant response rating” value in test [1] (setting [4]) came out at 0. In addition, the “Plant response rating, Goosegrass” value in test [1] (125 g ai/ha, 0 to 100 scale) amounted to 0. The “Plant response rating, Blackgrass” value in test [2] (setting [4]) and in test [2] (setting [5]) was 0 throughout. Besides, the “Pigweed, Palmer plant response rating” value in test [3] (setting [4]) came out at 0. Also, the “Plant response rating, Pigweed, Palmer” value in test [3] (125 g ai/ha, 0 to 100 scale) stood at 40.
Take `COC1CCN(C(=O)c2cc(N(COC(=O)C(C)(C)C)S(=O)(=O)C(F)(F)F)c(C)c(C)c2C)CC1` [Compound 370]: the “Goosegrass plant response rating” value in test [1] (setting [4]) is listed as 0. Besides, the “Plant response rating, Goosegrass” value in test [1] (125 g ai/ha, 0 to 100 scale) worked out at 60. Moreover, the “Plant response rating, Blackgrass” value in test [2] (setting [4]) and in test [2] (setting [5]) was 0 in each case. Moreover, the “Pigweed, Palmer plant response rating” value in test [3] (setting [4]) came out at 0. Also, in test [3] (125 g ai/ha, 0 to 100 scale), the “Plant response rating, Pigweed, Palmer” value worked out at 20.
On to `C#CCN(C)C(=O)c1cc(N(COC(=O)C(C)(C)C)S(=O)(=O)C(F)(F)F)c(C)c(C)c1C` [Compound 371], for which the “Goosegrass plant response rating” value in test [1] (setting [4]) is given as 0. Besides, the “Plant response rating, Goosegrass” value in test [1] (125 g ai/ha, 0 to 100 scale) is given as 80. Further, the “Plant response rating, Blackgrass” value is 0 in test [2] (setting [4]) and 20 in test [2] (setting [5]). The “Pigweed, Palmer plant response rating” value in test [3] (setting [4]) is given as 0. For the same compound, the “Plant response rating, Pigweed, Palmer” value in test [3] (125 g ai/ha, 0 to 100 scale) is given as 30.
Consider `Cc1cc(C)c(C2=NOC3OCCCC23)cc1NS(=O)(=O)C(F)(F)F` (stereo not drawn) [Compound 372], for which the “Goosegrass plant response rating” value in test [1] (setting [4]) turned out to be 0. In addition, the “Plant response rating, Goosegrass” value in test [1] (125 g ai/ha, 0 to 100 scale) is 80. Also, the “Plant response rating, Blackgrass” value in test [2] (setting [4]) is given as 0; in test [2] (setting [5]) it was 40. Besides, the “Pigweed, Palmer plant response rating” value in test [3] (setting [4]) was found to be 30. In test [3] (125 g ai/ha, 0 to 100 scale), the “Plant response rating, Pigweed, Palmer” value is listed as 40.
`CCC1CC(c2cc(NS(=O)(=O)C(F)(F)F)c(C)cc2C)=NO1` (stereo not drawn) [Compound 375]: the “Goosegrass plant response rating” value in test [1] (setting [4]) was 50. Also, the “Plant response rating, Goosegrass” value in test [1] (125 g ai/ha, 0 to 100 scale) is on record as 90. For the same compound, the “Plant response rating, Blackgrass” value turned out to be 20 in test [2] (setting [4]) and 50 in test [2] (setting [5]). For the same compound, the “Pigweed, Palmer plant response rating” value in test [3] (setting [4]) came out at 0. Further, in test [3] (125 g ai/ha, 0 to 100 scale), the “Plant response rating, Pigweed, Palmer” value is given as 20.
For the compound `CCC1CC(c2cc(N(COC(=O)C(C)(C)C)S(=O)(=O)C(F)(F)F)c(C)cc2C)=NO1` (stereo not drawn) [Compound 376], the “Goosegrass plant response rating” value in test [1] (setting [4]) was 0. Also, in test [1] (125 g ai/ha, 0 to 100 scale), the “Plant response rating, Goosegrass” value was 50. Besides, the “Plant response rating, Blackgrass” value in test [2] (setting [4]) worked out at 0; in test [2] (setting [5]), 20. Further, the “Pigweed, Palmer plant response rating” value in test [3] (setting [4]) turned out to be 0. The “Plant response rating, Pigweed, Palmer” value in test [3] (125 g ai/ha, 0 to 100 scale) came to 20.
